According to patent publication US12496355B2, “Method for treating a cancer and/or cancer metastasis” (NANO TARGETING & THERAPY BIOPHARMA INC., priority 2022, dated 2025):
“Also recorded” adds a separate entry of the source.

Experiments:
[1] = tested on: tumor angiogenesis on chicken embryo chorioallantoic membrane; assay: Chorioallantoic membrane (CAM) tumor model for angiogenesis; assay type: in vivo; conditions: administered on day 12, observed on days 14 and 16
Protocol: To evaluate the effect of MSNs on tumor angiogenesis, chicken embryo chorioallantoic membrane (CAM) tumor model was used. The fertilized eggs were incubated in the incubator for 10 days, then a small window was opened in the eggshell and the cancer cells were implanted on the CAM membrane near the aorta. MSN or Doxorubicin (DOX) was administered on day 12 when the tumor was formed and the angiogenesis near the tumor was observed on days 14 and 16.

[2] = tested on: luciferase-expressing HCT-116 cells; assay: Orthotopic colorectal cancer metastasis model, cells injected into cecum wall; conditions: 40 mg/kg twice per week, 8 administrations
From the text: 2×10^6 luciferase-expressing HCT-116 cells were directly injected into the wall of the cecum with surgery to establish the orthotopic colorectal cancer metastasis model, this model spontaneously produces highly metastatic tumors in adjacent intestinal tissues, peritoneum, and distance metastasis (spleen, kidney, liver, and diaphragm). […] The tumor growth and metastasis were observed by the IVIS system once a week and body weight was observed over the study period. To assess overall survival, animals were monitored up to the point of spontaneous death or approaching moribund status.

SMILES	blood vessels near the tumor (angiogenesis) [1]	primary tumor growth and metastases (IVIS bioluminescence) [2]
COc1cccc2c1C(=O)c1c(O)c3c(c(O)c1C2=O)C[C@@](O)(C(=O)CO)C[C@@H]3O[C@H]1C[C@H](N)[C@H](O)[C@H](C)O1 [DOX, Doxorubicin]	blood vessels exhibited disintegration and decreased density	
CCc1c2c(nc3ccc(OC(=O)N4CCC(N5CCCCC5)CC4)cc13)-c1cc3c(c(=O)n1C2)COC(=O)[C@]3(O)CC [IRI, irinotecan]		slower tumor growth rate compared to the control group; also recorded: inefficient inhibition of tumor growth and metastases
